Experimental findings from US11213495B2, “Method and composition for decreasing the psychotomimetic side effect and addictive disorder of ketamine” (NATIONAL HEALTH RESEARCH INSTITUTES, priority 2016, dated 2022) are described below.

Each structure is given as a SMILES string.

Assay type in all cases: in vivo
In assay [1] the test system is Male ICR mice. Put plainly: Forced swim test (FST): duration of immobility, struggling and swimming. The conditions noted are these: DMG 30 mg/kg pretreatment prior to ketamine 10 mg/kg. The procedure: FST was conducted for two consecutive days. Mice were placed in a Plexiglas cylinder (33.5 cm height, 20 cm diameter) filled with 25±2° C. water to a height of 18-20 cm. For the first exposure, mice were placed in the water for 15 min (pre-test session) followed by […]. Twenty-four hours later (day 1 test session), various doses of test drug (at 0, 30 and 100 mg/kg) was administered 30 min prior to the ketamine (10 mg/kg) or saline. Then, the mice were tested 30 min after ketamine injection which placed in the water again for a 6 min session (test session), the first 2 minutes has elapsed. Immobility was assigned when no additional activity was observed other than that required to keep the head above the water.
This experiment included a control group and various doses of ketamine (3, 10, 15 mg/kg), betaine (10, 20, 30 mg/kg) and betaine (10, 20, 30 mg/kg) pretreatment prior to ketamine (fixed dose at 10 mg/kg). […] There was no significant effect of test session or interaction.

The subject of assay [2] is Male ICR mice. Put plainly: Rotarod test (motor coordination). The conditions noted are these: DMG 30 and 100 mg/kg prior to ketamine 30 mg/kg. As for the experimental part: Motor coordination was examined using an automated rotarod device (Singa; Technology Co., Ltd, Taiwan) for a maximum of 6 mice. A computer recorded the latency to fall in seconds. During two-three days training period, the mice were first trained on the rotarod at a constant speed of 20 rotations per minute (rpm) until all of the mice were able to spend at least 3 min on the road. The test drug (0, 30 and 100 mg/kg) was administered 30 min prior to the ketamine (30 mg/kg) or saline injection. Then, the mice were tested 10, 15, 20, 25, and 30 min after ketamine injection.
For orientation: The rotarod test checks motor coordination on a turning rod.

In assay [3] the test system is Male ICR mice. The experiment in a line: Prepulse inhibition test (PPI) of acoustic startle. As to conditions: DMG 100 mg/kg pretreatment, ketamine 30 mg/kg; p<0.001. As for the experimental part: The PPI was operated as described in our previous work (Chan et al., 2012a). Briefly, the animals were initially moved from the home cage, weighed, and then placed into the restrainers in the SR-LAB (San Diego Instruments, San Diego, Calif., USA) acoustic startle chambers for 30-min habituation. The test drug (0, 30 and 100 mg/kg) was administered 30 min prior to ketamine (30 mg/kg) or saline injection. After administration of ketamine or saline, the experiment started with a 5-min adaptation period during which the animals were exposed to 67-dB background white noise, and this background noise was continued throughout the session. Then, the following adaptation period startle session began with five initial startle stimuli (120 dB bursts of white noise, 40 ms duration). After the first five initial stimuli, mice received five different trial types: pulse alone trials (120 dB bursts of white noise, 40 ms duration), three prepulse and pulse trials in which 76, 81, or 86 dB white noise bursts (9, 14, and 19 dB above background) of 20 ms duration preceded 120 dB pulse by 100 ms prepulse onset to pulse onset, and no-stimuli trials during which only background noise was applied. Each of these trial types was presented five times in randomized order. The inter trial interval was 7-23 s, and the test lasted 15 min in total. Prepulse inhibition was calculated as the percent inhibition of the startle amplitude evoked by the pulse alone: % PPI=(magnitude on pulse alone trial−magnitude on prepulse+pulse trial/magnitude on pulse alone trial)×100.

Assay [4] has as its system Male ICR mice. Put plainly: Novel object recognition test (NORT). The conditions noted are these: DMG 100 mg/kg pretreatment, ketamine 30 mg/kg; 24 h after sample phase. The procedure: (§1) The novel location recognition test (NLRT) and novel object recognition test (NORT) were examined in a Plexiglas open field box (35×35×30 cm) located in a sound-attenuated room and illuminated with a 20-W light bulb. The novel location and novel object recognition procedure consisted of habituation, training, and retention sessions. Habituation was conducted in two consecutive daily sessions, during which each mouse was allowed to individually explore the box in the absence of objects for 20 min. The animal is then removed from the arena and placed in its home cage. During the sample phase, each animal was placed in the box, and after 5 min, two identical sample objects (A+A) were simultaneously introduced in two corners. Each animal was allowed to explore the objects for 5 min. An animal was considered to explore the object when its head was facing the object at a distance of approximately 1 cm or less between the head and object or when it was touching or sniffing the object. The time spent exploring each object was recorded using stopwatches by an experimenter blind to the treatment condition.
After the sample phase, the mice were immediately returned to their home cages. The novel location recognition test was conducted 30 min after the training session. The animals were returned to the same box as during the sample phase, and one of the two objects was replaced with a novel local corner (A+A′) to test the location-based recognition memory. After 24 hours, novel object recognition test was performed. The mice are allowed to explore the open field with one identical sample object and a novel object to assess the novel object recognition memory (A+B). The animals were allowed to explore the box freely for 5 min, and the time spent exploring each object was recorded as described above. The objects and chambers were cleaned with 70% ethanol after each use. A preference index, a ratio of the amount of time spent exploring the original object or the novel location/object over the total time spent exploring both objects, was used to evaluate recognition memory. […]

The test system of assay [5] is Male ICR mice. The experiment in a line: Novel location recognition test (NLRT). As to conditions: DMG 100 mg/kg pretreatment, ketamine 30 mg/kg; 30 min after sample phase. As for the experimental part: as §1
After the sample phase, the mice were immediately returned to their home cages. […] The animals were allowed to explore the box freely for 5 min, and the time spent exploring each object was recorded as described above. […]

Assay [6] relates to Male ICR mice. The experiment in a line: Loss of righting reflex (LORR). The conditions noted are these: DMG 100 and 300 mg/kg 30 min prior to ketamine 100 mg/kg. As for the experimental part:
The test drug betaine (0, 300, and 600 mg/kg) or DMG (0, 100 and 300 mg/kg) was administered 30 min prior to the anesthetic doses of ketamine (100 mg/kg). Then, the mice were placed in a clean cage until the righting reflex was lost. They were then placed in the supine position until recovery and the onset and duration of the loss of righting reflex was recorded. Recovery of the righting reflex was defined as the ability to perform three successive rightings.

The subject of assay [7] is Male ICR mice. The experiment in a line: Open field test / locomotor activity. The conditions noted are these: DMG 30 and 100 mg/kg pretreatment 30 min prior to ketamine 30 mg/kg. As for the experimental part: To evaluate the effect of DMG on ketamine-induced locomotor hyperactivity, the animals were moved from the home cage, weighed and placed into an activity cage (Columbus Auto-Track System, Version 3.0 A, Columbus Institute, Columbus, Ohio, USA) for 2 hours. Thereafter, the test drug (0, 30, and 100 mg/kg) was given 30 min prior to ketamine (30 mg/kg) or saline. The distance (cm) traveled was recorded for totally 180 min. A 70% alcohol solution was used to clean the inner surface of all the testing apparatus between trials to remove any potentially interfering odors left by the previous mouse.

Another assay deals with Male Sprague-Dawley rats. Put plainly: Ketamine intravenous self-administration (IVSA) under progressive ratio (PR) schedule. The procedure: The dose-dependent effects of betaine and its metabolite DMG on ketamine addiction were evaluated by the intravenous self-administration (IVSA) paradigm under a progressive ratio (PR) schedule. Animals were implanted indwelling catheters flushing of ketamine (0.5 mg/kg/per infusion), termed the training dose, under a FR1 schedule during daily 3-h sessions. After acquisition of stable responding for ketamine (criterion of less than 20% deviation from the mean of the total number of reinforcers earned in three consecutive sessions for each rat), the ketamine reinforcement schedule was changed to FR2 and maintained until responding stabilized at least for 3 days. Then, the PR schedule was conducted. The lever presses required to gain an infusion was determined by: 5×e^(infusion number×0.2)−5 (i.e., 1, 2, 4, 6, 9, […], 15, 20, 25, 32, etc). […] The dose-dependent effects of betaine of self-administration of various doses of ketamine ([…]) were assessed by pretreatment 30 min prior to their daily operant session using a within-subject Latin square design.

For assay [8], the system named is Male ICR mice. Put plainly: Forced swim test (FST): duration of immobility, struggling and swimming.

In the case of `CN(C)CC(=O)O` [DMG, N,N-dimethylglycine], the “duration of immobility in FST compared with ketamine (10 mg/kg) alone” value in the assay on Male ICR mice [1] is given as “significantly shorter duration of immobility”. Also, in the assay on Male ICR mice [2], the “ketamine-induced motor in coordination” value is given as “significantly reduced”. Also, the “ketamine-induced disruption of PPI” value in the assay on Male ICR mice [3] is given as “significantly attenuated”. Besides, the “ketamine-induced recognition memory impairment in NORT” value in the assay with Male ICR mice [4] is listed as “significantly attenuated”. For the same molecule, in the assay on Male ICR mice [5], the “ketamine-induced recognition memory impairment in NLRT” value is “significantly attenuated”. For the same molecule, in the assay with Male ICR mice [6], the “duration of ketamine-induced loss of righting reflex” value is on record as “did not affect”. For the same molecule, in the assay with Male ICR mice [6], the “onset of ketamine-induced loss of righting reflex” value is listed as “did not affect”. The ketamine-induced locomotor hyperactivity entry with Male ICR mice [7] is recorded as “reduced”. Also, the “reduction of cumulative responses by ketamine” value in the assay on Male Sprague-Dawley rats (DMG 100 mg/kg pretreatment, ketamine 0.3 mg/kg/infusion, PR schedule) was found to be 40%. Further, the “ketamine self-administration under PR schedule” value in the assay with Male Sprague-Dawley rats (DMG pretreatment) was “significantly decreased”. Moreover, the “duration of immobility in FST” value is given as “significantly decreased” in the assay with Male ICR mice [8] (DMG 10, 20 and 30 mg/kg alone); “significantly decreased” with Male ICR mice [8] (DMG 10, 20 and 30 mg/kg pretreatment prior to ketamine 10 mg/kg).
